One assay deals with MAPK14 (human) (UniProt Q16539). In words: p38 Enzyme Inhibition Assay.
Assay [1] addresses MAPK14 (human), Q16539 [p38(A157V) Mutant Enzyme Inhibition Assay]. In words: p38(A157V) Mutant Enzyme Inhibition Assay.
The target in assay [2] is MAPK14 (human), Q16539 [p38(M109A) Mutant Enzyme Inhibition Assay]. As to the kind of experiment: p38(M109A) Mutant Enzyme Inhibition Assay.

Where only a bound is given, the exact number is not on record here.

MAPK14 (human), sequence (Q16539 whole entry, looked up): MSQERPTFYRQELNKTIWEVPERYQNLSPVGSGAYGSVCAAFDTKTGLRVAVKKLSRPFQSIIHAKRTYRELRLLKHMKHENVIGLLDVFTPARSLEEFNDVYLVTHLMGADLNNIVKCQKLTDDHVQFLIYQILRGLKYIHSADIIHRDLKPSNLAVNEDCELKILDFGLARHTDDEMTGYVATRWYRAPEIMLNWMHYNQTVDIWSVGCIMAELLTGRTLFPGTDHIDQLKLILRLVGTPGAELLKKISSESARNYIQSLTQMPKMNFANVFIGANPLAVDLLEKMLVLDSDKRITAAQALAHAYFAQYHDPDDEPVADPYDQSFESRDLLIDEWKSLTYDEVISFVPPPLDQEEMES
MAPK14 (human), Q16539 [p38(A157V) Mutant Enzyme Inhibition Assay], sequence (Q16539 whole entry, looked up, stated change not applied): as the sequence (Q16539 whole entry, looked up) above
MAPK14 (human), Q16539 [p38(M109A) Mutant Enzyme Inhibition Assay], sequence (Q16539 whole entry, looked up, stated change not applied): as the sequence (Q16539 whole entry, looked up) above

As for `Cn1c(C2CCNCC2)nc(-c2cccc(C(F)(F)F)c2)c1-c1ccncc1`, the figures for the 50% inhibitory concentration (IC50) (against MAPK14 (human); in assay [1]; in assay [2]) were 7 nM, below 0.5 nM and 46 nM, respectively.

In the case of `C[S+]([O-])c1ccc(-c2cc(-c3ccc(F)cc3)c(-c3ccncc3)[nH]2)cc1` (configuration not stated), the results for the IC50 (on MAPK14 (human); in assay [1]; in assay [2]) were 4 nM, 58 nM and 7.5 nM, respectively.

As for `C[C@H](Nc1cc(-c2nc(C3CCCNC3)n(C)c2-c2cccc(C(F)(F)F)c2)ccn1)c1ccccc1` (some centres not stated), the values for the IC50 (against MAPK14 (human); in assay [1]; in assay [2]) were 94 nM, 13 nM and 712 nM, respectively.

`C[S+]([O-])c1ccc(-c2cc(-c3ccc(F)c(F)c3)c(-c3ccncc3)[nH]2)cc1` (configuration not stated): the IC50 (commonly the point on the concentration scale where inhibition reaches its midpoint) at MAPK14 (human) was 12 nM; in assay [1], 450 nM; in assay [2], 37 nM.

Source of the values: the Kinase Knowledgebase extract (Sharma et al. 2016).
